The source of these data is patent publication US9884063B2, “Amido-substituted azole compounds” (Bayer Pharma Aktiengesellschaft, priority 2014, dated 2018).

By IC50 is commonly meant the point on the concentration scale where inhibition reaches its midpoint. Low readings indicate inhibition by little substance, high ones a need for much substance.

The assay addresses T1, TNKS1 (Homo sapiens, UniProt O95271).
T1 sequence (O95271 1-1327): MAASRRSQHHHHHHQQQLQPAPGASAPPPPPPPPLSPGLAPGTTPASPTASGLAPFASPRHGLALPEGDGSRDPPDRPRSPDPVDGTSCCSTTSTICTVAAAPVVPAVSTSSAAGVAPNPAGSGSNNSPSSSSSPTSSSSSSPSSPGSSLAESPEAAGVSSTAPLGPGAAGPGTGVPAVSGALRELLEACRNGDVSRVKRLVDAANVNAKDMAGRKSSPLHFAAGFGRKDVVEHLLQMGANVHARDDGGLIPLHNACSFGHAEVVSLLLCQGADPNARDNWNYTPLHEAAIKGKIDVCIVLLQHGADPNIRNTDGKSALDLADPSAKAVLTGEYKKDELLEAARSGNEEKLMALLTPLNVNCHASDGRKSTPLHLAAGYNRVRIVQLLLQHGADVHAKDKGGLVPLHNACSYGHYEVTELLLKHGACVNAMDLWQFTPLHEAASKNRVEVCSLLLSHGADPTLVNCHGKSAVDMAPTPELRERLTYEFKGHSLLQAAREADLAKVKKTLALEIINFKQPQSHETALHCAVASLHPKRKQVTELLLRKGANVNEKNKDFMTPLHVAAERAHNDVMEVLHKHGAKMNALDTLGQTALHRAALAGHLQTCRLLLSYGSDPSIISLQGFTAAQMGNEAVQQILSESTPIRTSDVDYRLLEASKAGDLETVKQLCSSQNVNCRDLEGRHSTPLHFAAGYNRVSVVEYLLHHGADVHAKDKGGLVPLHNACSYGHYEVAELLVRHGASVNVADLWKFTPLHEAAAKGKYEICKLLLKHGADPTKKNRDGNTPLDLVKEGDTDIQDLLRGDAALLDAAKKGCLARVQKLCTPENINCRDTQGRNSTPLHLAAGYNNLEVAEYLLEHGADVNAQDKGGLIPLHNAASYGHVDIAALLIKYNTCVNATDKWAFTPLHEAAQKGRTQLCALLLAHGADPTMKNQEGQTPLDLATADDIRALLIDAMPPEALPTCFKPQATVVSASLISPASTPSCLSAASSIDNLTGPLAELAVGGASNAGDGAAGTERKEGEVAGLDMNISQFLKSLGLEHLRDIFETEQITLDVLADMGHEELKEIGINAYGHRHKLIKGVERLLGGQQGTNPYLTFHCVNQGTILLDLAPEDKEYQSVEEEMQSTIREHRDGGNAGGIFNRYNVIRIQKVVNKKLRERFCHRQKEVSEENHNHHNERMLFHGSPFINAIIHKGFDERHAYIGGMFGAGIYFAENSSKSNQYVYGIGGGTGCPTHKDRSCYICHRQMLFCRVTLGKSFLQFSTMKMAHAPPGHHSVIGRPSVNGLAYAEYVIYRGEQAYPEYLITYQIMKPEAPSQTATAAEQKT
Briefly: Modified TNKS1 Assay 2 (auto-parsylation, [3H]-NAD+ SPA). The note with it: 6 nM TNKS1, 96 well. It counts as biochemical.
`CC(CN1CCOCC1)NC(=O)c1[nH]cnc1C(=O)Nc1ccc(NC(=O)c2ccc(F)cc2Cl)cc1` (single isomer, unassigned; enantiomer 2) [Example 270, N^4-{4-[(2-chloro-4-fluorobenzoyl)amino]phenyl}-N^5-[1-(morpholin-4-yl)propan-2-yl]-1H-imidazole-4,5-dicarboxamide (enantiomer 2)] registered a concentration for half-maximal inhibition (IC50) of 4 nM. This lies in the single-digit nanomolar range.
Then `O=C(Nc1ccc(NC(=O)c2[nH]cnc2C(=O)NCCC2CCCC2)cc1)c1ccc(F)cc1Cl` [Example 42, N^5-{4-[(2-chloro-4-fluorobenzoyl)amino]phenyl}-N^4-(2-cyclopentylethyl)-1H-imidazole-4,5-dicarboxamide], with > 10000 nM; and `O=C(Nc1ccc(NC(=O)c2[nH]cnc2C(=O)NCCC2CC2)cc1)c1ccc(F)cc1Cl` [Example 43, N^5-{4-[(2-chloro-4-fluorobenzoyl)amino]phenyl}-N^4-(2-cyclopropylethyl)-1H-imidazole-4,5-dicarboxamide], with 9200 nM; and `O=C(Nc1ccc(NC(=O)c2[nH]cnc2C(=O)NC2CC2)cc1)c1cc(F)c(F)cc1Cl` [Example 51, N^5-{4-[(2-chloro-4,5-difluorobenzoyl)amino]phenyl}-N^4-cyclopropyl-1H-imidazole-4,5-dicarboxamide], with 20 nM.
Under `O=C(Nc1ccc(NC(=O)c2[nH]cnc2C(=O)N2CC3(COC3)C2)cc1)c1cc(F)c(F)cc1Cl` [Example 52, N-{4-[(2-chloro-4,5-difluorobenzoyl)amino]phenyl}-4-(2-oxa-6-azaspiro[3.3]hept-6-ylcarbonyl)-1H-imidazole-5-carboxamide] stands 30 nM.
Regarding `CS(=O)(=O)c1ccc(C(=O)Nc2ccc(NC(=O)c3[nH]cnc3C(=O)NCCN3CCCCC3)cc2)c(Cl)c1` [Example 53, N^5-(4-{[2-chloro-4-(methylsulfonyl)benzoyl]amino}phenyl)-N^4-[2-(piperidin-1-yl)ethyl]-1H-imidazole-4,5-dicarboxamide], the IC50 was found to be 20 nM.
Consider `CNC(=O)c1nc[nH]c1C(=O)Nc1ccc(NC(=O)c2ccc(S(C)(=O)=O)cc2Cl)cc1` [Example 55, N^5-(4-{[2-chloro-4-(methylsulfonyl)benzoyl]amino}phenyl)-N^4-methyl-1H-imidazole-4,5-dicarboxamide], for which the IC50 came out at 120 nM.
Then `CNC(=O)c1nc[nH]c1C(=O)Nc1ccc(NC(=O)c2ccc(F)cc2I)cc1` [Example 61, N^5-{4-[(4-fluoro-2-iodobenzoyl)amino]phenyl}-N^4-methyl-1H-imidazole-4,5-dicarboxamide], with 30 nM; and `CNC(=O)c1nc[nH]c1C(=O)Nc1ccc(NC(=O)c2cc(OC(F)(F)F)ccc2Br)cc1` [Example 64, N^5-(4-{[2-bromo-5-(trifluoromethoxy)benzoyl]amino}phenyl)-N^4-methyl-1H-imidazole-4,5-dicarboxamide], with > 10000 nM; and `CCc1nc(C(=O)Nc2ccc(NC(=O)c3ccc(F)cc3Cl)cc2)c(C(=O)NC)[nH]1` [Example 68, N^4-{4-[(2-chloro-4-fluorobenzoyl)amino]phenyl}-2-ethyl-N^5-methyl-1H-imidazole-4,5-dicarboxamide], with > 10000 nM.
Then `COC(=O)c1nc[nH]c1C(=O)Nc1ccc(NC(=O)c2ccc(F)cc2Cl)c(F)c1` [Example 71, methyl 5-({4-[(2-chloro-4-fluorobenzoyl)amino]-3-fluorophenyl}carbamoyl)-1H-imidazole-4-carboxylate], with 100 nM; and `CN(C)CCNC(=O)c1nc[nH]c1C(=O)Nc1ccc(NC(=O)c2ccc(F)cc2)c(F)c1` [Example 77, N^4-[2-(dimethylamino)ethyl]-N^5-{3-fluoro-4-[(4-fluorobenzoyl)amino]phenyl}-1H-imidazole-4,5-dicarboxamide], with 990 nM.
On to `O=C(Nc1ccc(NC(=O)c2[nH]cnc2C(=O)NCCN2CCCCC2)cc1F)c1ccc(F)cc1` [Example 78, N^5-{3-fluoro-4-[(4-fluorobenzoyl)amino]phenyl}-N^4-[2-(piperidin-1-yl)ethyl]-1H-imidazole-4,5-dicarboxamide], for which the IC50 is > 10000 nM.
Under `CNC(=O)c1nc[nH]c1C(=O)Nc1ccc(NC(=O)c2ccccc2Cl)c(F)c1` [Example 80, N^5-{4-[(2-chlorobenzoyl)amino]-3-fluorophenyl}-N^4-methyl-1H-imidazole-4,5-dicarboxamide] stands 690 nM; under `CN(C)CCNC(=O)c1nc[nH]c1C(=O)Nc1ccc(NC(=O)c2ccccc2Cl)c(F)c1` [Example 81, N^5-{4-[(2-chlorobenzoyl)amino]-3-fluorophenyl}-N^4-[2-(dimethylamino)ethyl]-1H-imidazole-4,5-dicarboxamide], 60 nM.
Then `Cc1cc(NC(=O)c2[nH]cnc2C(=O)NCCN(C)C)ccc1NC(=O)c1ccc(F)cc1Cl` [Example 84, N^5-{4-[(2-chloro-4-fluorobenzoyl)amino]-3-methylphenyl}-N^4-[2-(dimethylamino)ethyl]-1H-imidazole-4,5-dicarboxamide], with 170 nM; and `Cc1cc(NC(=O)c2[nH]cnc2C(=O)NCCN2CCCCC2)ccc1NC(=O)c1ccc(F)cc1Cl` [Example 85, N^5-{4-[(2-chloro-4-fluorobenzoyl)amino]-3-methylphenyl}-N^4-[2-(piperidin-1-yl)ethyl]-1H-imidazole-4,5-dicarboxamide], with 9 nM.
Then `CCNC(=O)c1nc[nH]c1C(=O)Nc1ccc(NC(=O)c2cccc(OC)c2Cl)cc1` [Example 260, N^5-{4-[(2-chloro-3-methoxybenzoyl)amino]phenyl}-N^4-ethyl-1H-imidazole-4,5-dicarboxamide], with 3000 nM; and `CCNC(=O)c1nc[nH]c1C(=O)Nc1ccc(NC(=O)c2ncccc2Cl)cc1` [Example 261, N^5-(4-{[(3-chloropyridin-2-yl)carbonyl]amino}phenyl)-N^4-ethyl-1H-imidazole-4,5-dicarboxamide], with 230 nM.
For the molecule `O=C(Nc1ccc(NC(=O)c2nc[nH]c2C(=O)N[C@H]2CCNC2)cc1)c1ccc(F)cc1Cl` [Example 281, N^4-{4-[(2-chloro-4-fluorobenzoyl)amino]phenyl}-N^5-[(3S)-pyrrolidin-3-yl]-1H-imidazole-4,5-dicarboxamide], half-maximal inhibition (IC50) required 60 nM.
Under `NCCNC(=O)c1[nH]cnc1C(=O)Nc1ccc(NC(=O)c2ccc(F)cc2Cl)cc1` [Example 290, N^5-(2-aminoethyl)-N^4-{4-[(2-chloro-4-fluorobenzoyl)amino]phenyl}-1H-imidazole-4,5-dicarboxamide] stands 40 nM; under `O=C(Nc1ccc(NC(=O)c2nc[nH]c2C(=O)NCCN2CCCCC2)cc1OC(F)(F)F)c1ccc(F)cc1Cl` [Example 293, N^4-{4-[(2-chloro-4-fluorobenzoyl)amino]-3-(trifluoromethoxy)phenyl}-N^5-[2-(piperidin-1-yl)ethyl]-1H-imidazole-4,5-dicarboxamide], 80 nM.
Turning to `CC(CN1CCOCC1)NC(=O)c1[nH]cnc1C(=O)Nc1ccc(NC(=O)c2ccc(F)cc2)cc1` (stereo not drawn) [Example 294, N^4-{4-[(4-fluorobenzoyl)amino]phenyl}-N^5-[1-(morpholin-4-yl)propan-2-yl]-1H-imidazole-4,5-dicarboxamide], the IC50 is 210 nM. This IC50 is about 2.6-fold higher than that of the molecule before.
`CNC(=O)c1nc[nH]c1C(=O)Nc1ccc(NC(=O)c2ccc(C#N)cc2)cc1` [Example 322, N^5-{4-[(4-cyanobenzoyl)amino]phenyl}-N^4-methyl-1H-imidazole-4,5-dicarboxamide] displayed an IC50 of 1000 nM.
